Columns and labels:
ORYSAT (Rice, Tebonnet) = experiment: Flooded paddy, post-transplant rice tolerance; format: in vivo, Oryza sativa, (L.) Tebonnet; conditions: flooded paddy, post-transplant rice, rated 3-4 weeks after treatment, 0-9 rating scale
Method in brief: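 Visual 0-9 rating against a control, covering stand, vigor, malformation, size, chlorosis and overall appearance. Treatment was applied after transplanting paired ten-day-old seedlings into flooded silt loam, with water kept 1.5 to 3 cm deep on greenhouse benches.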

[1] = system: ABUTH (Abutilon theophrasti); experiment: Preemergence herbicidal evaluation; format: in vivo, Medic.; conditions: preemergence, rated 4-5 weeks after treatment
ZEAMX (Corn, Field) = experiment: Preemergence herbicidal evaluation; format: in vivo, Zea mays, L.; conditions: preemergence, rated 4-5 weeks after treatment
[2] = system: GLXMAW (Soybean, Williams); experiment: Postemergence herbicidal evaluation; format: in vivo, Glycine max, (L.) Merr. cv Williams
Method in brief: (§1)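 Seedlings grown about two weeks in flats, sprayed, then kept under standard greenhouse care. Rated visually 4–5 weeks after treatment on a 0–9 scale (stand, vigour, malformation, size, chlorosis, overall appearance) relative to untreated control; repeat tests averaged.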

[3] = system: CYPSE (Cyperus serotinus); experiment: Flooded paddy, preemergence weed control; format: in vivo, Rottb.; conditions: rated 3-4 weeks after treatment, 0-9 rating scale
Method in brief: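 Herbicidal effect was scored visually on a 0–9 scale against an untreated control 3–4 weeks after treatment. Compounds were applied preemergence as 50/50 v/v aqueous/acetone mixtures into flood water (1.5–3 cm deep over silt loam), at roughly 0.0080 to 0.1250 kg/ha active ingredient.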

GALAP (Galium aparine) [4] = experiment: Postemergence herbicidal evaluation; format: in vivo
Method in brief: as §1

[5] = system: ABUTH (Abutilon theophrasti); experiment: Postemergence herbicidal evaluation; format: in vivo, Medic.
Method in brief: as §1

[6] = system: MOOVA (Monochoria vaginalis); experiment: Flooded paddy, preemergence weed control; format: in vivo, Presl.; conditions: rated 3-4 weeks after treatment, 0-9 rating scale
Method in brief: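 Visual 0-9 rating versus control, scoring stand, vigor, malformation, size, chlorosis and overall appearance. Silt loam soil, propagules in top 0.5 cm; flood depth 1.5–3 cm held for the whole test; greenhouse.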

[7] = system: ECHCG (Echinochloa crus-galli); experiment: Preemergence herbicidal evaluation; format: in vivo, (L.) Beau; conditions: preemergence, rated 4-5 weeks after treatment
Method in brief: (§2)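 Visual 0–9 rating versus control (stand, vigor, malformation, size, chlorosis, overall appearance), scored four to five weeks post-treatment. Preemergence spray of aqueous acetone solution onto freshly seeded soil cups; plants grown under conventional greenhouse care.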

SETVI (Setaria viridis) [8] = experiment: Preemergence herbicidal evaluation; format: in vivo, (L.) Beau; conditions: preemergence, rated 4-5 weeks after treatment
Method in brief: as §2

[9] = system: CHEAL (Chenopodium album); experiment: Preemergence herbicidal evaluation; format: in vivo, L.; conditions: preemergence, rated 4-5 weeks after treatment
Method in brief: as §2

[10] = system: AMBEL (Ambrosia artemisifolia); experiment: Preemergence herbicidal evaluation; format: in vivo, L.; conditions: preemergence, rated 4-5 weeks after treatment
Method in brief: as §2

[11] = system: CASOB (Cassia obtusifolia); experiment: Preemergence herbicidal evaluation; format: in vivo, L.; conditions: preemergence, rated 4-5 weeks after treatment
Method in brief: as §2

[12] = system: IPOHE (Ipomoea hederacea); experiment: Postemergence herbicidal evaluation; format: in vivo, (L.) Jacq.
Method in brief: as §1

GALAP (Galium aparine) [13] = experiment: Preemergence herbicidal evaluation; format: in vivo; conditions: preemergence, rated 4-5 weeks after treatment
Method in brief: as §2

[14] = system: TRZAWR (Wheat, Winter, cv Riband); experiment: Postemergence herbicidal evaluation; format: in vivo, Triticum aestivum
Method in brief: as §1

SETVI (Setaria viridis) [15] = experiment: Postemergence herbicidal evaluation; format: in vivo, (L.) Beau
Method in brief: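 Visual injury score (0-9: stand, vigor, malformation, size, chlorosis, overall appearance vs untreated control) taken four to five weeks post-spray. Two-week-old seedlings received about 0.0040 to 1.000 kg/ha active compound in acetone/water with 0.5% TWEEN 20.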

Cn1c(C(F)(F)F)cc(=O)n(-c2ccc3snc(C4OCCCO4)c3c2)c1=O [Compound 28, 3-(3-m-dioxan-2-yl-1,2-benzisothiazol-5-yl)-1-methyl-6-(trifluoromethyl)uracil]
7.0: herbicidal rating, ORYSAT (rice tolerance) (ORYSAT (Rice, Tebonnet); rate 0.0080 kg/ha)
9.0: herbicidal rating, ORYSAT (rice tolerance) (ORYSAT (Rice, Tebonnet); rate 0.0320 kg/ha) | herbicidal rating, ORYSAT (rice tolerance) (ORYSAT (Rice, Tebonnet); rate 0.1250 kg/ha) | ABUTH preemergence herbicidal rating ([1]; Rate 0.0620 kg/ha) | ABUTH preemergence herbicidal rating ([1]; Rate 0.1250 kg/ha) | ABUTH preemergence herbicidal rating ([1]; Rate 0.2500 kg/ha) | ZEAMX preemergence herbicidal rating (ZEAMX (Corn, Field); Rate 0.1250 kg/ha) | ZEAMX preemergence herbicidal rating (ZEAMX (Corn, Field); Rate 0.2500 kg/ha) | Postemergence herbicidal rating, GLXMAW ([2]; rate 0.0320 kg/ha) | Postemergence herbicidal rating, GLXMAW ([2]; rate 0.0620 kg/ha) | herbicidal rating, CYPSE ([3]; rate 0.0320 kg/ha) | herbicidal rating, CYPSE ([3]; rate 0.1250 kg/ha) | Postemergence herbicidal rating, GALAP (GALAP (Galium aparine) [4]; rate 0.0620 kg/ha) | Postemergence herbicidal rating, ABUTH ([5]; rate 0.0320 kg/ha) | Postemergence herbicidal rating, ABUTH ([5]; rate 0.0620 kg/ha) | herbicidal rating, MOOVA ([6]; rate 0.0080 kg/ha) | herbicidal rating, MOOVA ([6]; rate 0.0320 kg/ha) | herbicidal rating, MOOVA ([6]; rate 0.1250 kg/ha) | ECHCG preemergence herbicidal rating ([7]; Rate 0.0620 kg/ha) | ECHCG preemergence herbicidal rating ([7]; Rate 0.1250 kg/ha) | ECHCG preemergence herbicidal rating ([7]; Rate 0.2500 kg/ha) | SETVI preemergence herbicidal rating (SETVI (Setaria viridis) [8]; Rate 0.0620 kg/ha) | SETVI preemergence herbicidal rating (SETVI (Setaria viridis) [8]; Rate 0.1250 kg/ha) | SETVI preemergence herbicidal rating (SETVI (Setaria viridis) [8]; Rate 0.2500 kg/ha) | CHEAL preemergence herbicidal rating ([9]; Rate 0.0620 kg/ha) | CHEAL preemergence herbicidal rating ([9]; Rate 0.1250 kg/ha) | CHEAL preemergence herbicidal rating ([9]; Rate 0.2500 kg/ha) | AMBEL preemergence herbicidal rating ([10]; Rate 0.0620 kg/ha) | AMBEL preemergence herbicidal rating ([10]; Rate 0.1250 kg/ha) | AMBEL preemergence herbicidal rating ([10]; Rate 0.2500 kg/ha) | CASOB preemergence herbicidal rating ([11]; Rate 0.0620 kg/ha) | CASOB preemergence herbicidal rating ([11]; Rate 0.1250 kg/ha) | CASOB preemergence herbicidal rating ([11]; Rate 0.2500 kg/ha) | Postemergence herbicidal rating, IPOHE ([12]; rate 0.0620 kg/ha) | GALAP preemergence herbicidal rating (GALAP (Galium aparine) [13]; Rate 0.0620 kg/ha) | GALAP preemergence herbicidal rating (GALAP (Galium aparine) [13]; Rate 0.1250 kg/ha) | GALAP preemergence herbicidal rating (GALAP (Galium aparine) [13]; Rate 0.2500 kg/ha)
5.0: Postemergence herbicidal rating, TRZAWR ([14]; rate 0.0320 kg/ha)
8.0: ZEAMX preemergence herbicidal rating (ZEAMX (Corn, Field); Rate 0.0620 kg/ha)
6.5: Postemergence herbicidal rating, TRZAWR ([14]; rate 0.0620 kg/ha)
8.3: Postemergence herbicidal rating, GALAP (GALAP (Galium aparine) [4]; rate 0.0320 kg/ha) | Postemergence herbicidal rating, IPOHE ([12]; rate 0.0320 kg/ha) | Postemergence herbicidal rating, SETVI (SETVI (Setaria viridis) [15]; rate 0.0320 kg/ha)
8.5: Postemergence herbicidal rating, SETVI (SETVI (Setaria viridis) [15]; rate 0.0620 kg/ha)

CC(=O)N1CCSC1c1nsc2ccc(-n3c(=O)cc(C(F)(F)F)n(C)c3=O)cc12 (stereo not shown) [Compound 29, 3-acetyl-2-[5-[3,6-dihydro-3-methyl-2,6-dioxo-4-(trifluoromethyl)-1(2H)-pyrimidinyl]-1,2-benzisothiazol-3-yl]thiazolidine]
3.0: GALAP preemergence herbicidal rating (GALAP (Galium aparine) [13]; Rate 0.0620 kg/ha)
5.0: Postemergence herbicidal rating, SETVI (SETVI (Setaria viridis) [15]; rate 0.0620 kg/ha)
3.5: herbicidal rating, ORYSAT (rice tolerance) (ORYSAT (Rice, Tebonnet); rate 0.0320 kg/ha) | CASOB preemergence herbicidal rating ([11]; Rate 0.0620 kg/ha)
4.5: Postemergence herbicidal rating, TRZAWR ([14]; rate 0.0320 kg/ha) | Postemergence herbicidal rating, TRZAWR ([14]; rate 0.0620 kg/ha)
6.5: ECHCG preemergence herbicidal rating ([7]; Rate 0.1250 kg/ha) | SETVI preemergence herbicidal rating (SETVI (Setaria viridis) [8]; Rate 0.0620 kg/ha) | CASOB preemergence herbicidal rating ([11]; Rate 0.1250 kg/ha)
7.0: herbicidal rating, ORYSAT (rice tolerance) (ORYSAT (Rice, Tebonnet); rate 0.1250 kg/ha) | ZEAMX preemergence herbicidal rating (ZEAMX (Corn, Field); Rate 0.1250 kg/ha) | ZEAMX preemergence herbicidal rating (ZEAMX (Corn, Field); Rate 0.2500 kg/ha) | AMBEL preemergence herbicidal rating ([10]; Rate 0.0620 kg/ha) | GALAP preemergence herbicidal rating (GALAP (Galium aparine) [13]; Rate 0.1250 kg/ha)
8.0: ABUTH preemergence herbicidal rating ([1]; Rate 0.0620 kg/ha) | Postemergence herbicidal rating, GLXMAW ([2]; rate 0.0620 kg/ha) | ECHCG preemergence herbicidal rating ([7]; Rate 0.2500 kg/ha) | AMBEL preemergence herbicidal rating ([10]; Rate 0.1250 kg/ha) | CASOB preemergence herbicidal rating ([11]; Rate 0.2500 kg/ha)
0.0: herbicidal rating, ORYSAT (rice tolerance) (ORYSAT (Rice, Tebonnet); rate 0.0080 kg/ha) | herbicidal rating, CYPSE ([3]; rate 0.0320 kg/ha) | herbicidal rating, MOOVA ([6]; rate 0.0080 kg/ha) | Postemergence herbicidal rating, SETVI (SETVI (Setaria viridis) [15]; rate 0.0320 kg/ha)
9.0: ABUTH preemergence herbicidal rating ([1]; Rate 0.1250 kg/ha) | ABUTH preemergence herbicidal rating ([1]; Rate 0.2500 kg/ha) | Postemergence herbicidal rating, ABUTH ([5]; rate 0.0320 kg/ha) | Postemergence herbicidal rating, ABUTH ([5]; rate 0.0620 kg/ha) | herbicidal rating, MOOVA ([6]; rate 0.0320 kg/ha) | herbicidal rating, MOOVA ([6]; rate 0.1250 kg/ha) | SETVI preemergence herbicidal rating (SETVI (Setaria viridis) [8]; Rate 0.2500 kg/ha) | CHEAL preemergence herbicidal rating ([9]; Rate 0.0620 kg/ha) | CHEAL preemergence herbicidal rating ([9]; Rate 0.1250 kg/ha) | CHEAL preemergence herbicidal rating ([9]; Rate 0.2500 kg/ha) | AMBEL preemergence herbicidal rating ([10]; Rate 0.2500 kg/ha) | Postemergence herbicidal rating, IPOHE ([12]; rate 0.0320 kg/ha) | Postemergence herbicidal rating, IPOHE ([12]; rate 0.0620 kg/ha) | GALAP preemergence herbicidal rating (GALAP (Galium aparine) [13]; Rate 0.2500 kg/ha)
6.0: herbicidal rating, CYPSE ([3]; rate 0.1250 kg/ha) | Postemergence herbicidal rating, GALAP (GALAP (Galium aparine) [4]; rate 0.0620 kg/ha)
7.5: Postemergence herbicidal rating, GLXMAW ([2]; rate 0.0320 kg/ha) | SETVI preemergence herbicidal rating (SETVI (Setaria viridis) [8]; Rate 0.1250 kg/ha)
4.0: Postemergence herbicidal rating, GALAP (GALAP (Galium aparine) [4]; rate 0.0320 kg/ha)
5.5: ZEAMX preemergence herbicidal rating (ZEAMX (Corn, Field); Rate 0.0620 kg/ha) | ECHCG preemergence herbicidal rating ([7]; Rate 0.0620 kg/ha)

From US6706663B2, “Herbicidal 3-heterocyclic substituted benzisothiazole and benzisoxazole compounds” (Wyeth, priority 2000, dated 2004)
